Test results: US20250255882A1, “TREATMENT OF CARDIAC CONDITION RELATED COGNITIVE DYSFUNCTION” (The Trustees of Columbia University in the City of New York, priority 2024, published 2025)

What was measured:
TGF-β pathway = assay: immunoblots of TGF-β, phosphorylated SMAD3 and NOX2 binding to RyR2 in hippocampi; assay type: in vivo, mouse; details: hippocampi of treated MI mice
Source text: FIG. 12A includes immunoblots showing expressing levels of TGF-β, phosphorylated SMAD3, total SMAD3, and NOX2 binding to RyR2 in the hippocampi of controls (n=4) and HF patients (n=9). FIG. 12B includes bar graphs depicting the ratio of TGF-β expression normalized to GAPDH, phosphorylated SMAD3 to total SMAD3 and NOX2 binding to RyR2 (IP RyR2). The same quantity of proteins was loaded on two separate gels and blotted separately for SMAD3 and pSMAD3. Individual values are shown with mean±SEM (t-test * p<0.05, Controls vs. HF patients). […] FIG. 12D includes bar graphs depicting the ratio of TGF-β expression normalized to GAPDH, phosphorylated SMAD3 to total SMAD3 and NOX2 binding to RyR2 (IP RyR2). The same quantity of proteins was loaded on two separate gels and blotted separately for SMAD3 and pSMAD3. Individual values are shown with mean±SEM. […] All statistical tests were two-sided. Data are derived from biologically independent samples.
TGF-β has been implicated in CNS disorders including Alzheimer's disease.

[1] = tested on: amyloid and Tau pathology; details: Alzheimer's transgenic mice; cited from earlier work
healthy individuals = details: sustaining cognitive performance over time; cited from earlier work
RyR2 [2] = target: T1, RyR2 (Mus musculus, UniProt E9Q401); assay: caffeine-induced Ca2+ release in primary hippocampal neurons; assay type: cell-based; design: representative images of 14-d cultured hippocampal neurons stimulated with 10 mM caffeine; endogenous in cells; host or cells: primary hippocampal neurons, 14 d in culture; details: 10 mM caffeine; neurons treated with isoproterenol plus compound
Description: FIG. 5A presents representative images of 14-d cultured hippocampal neurons stimulated with 10 mM caffeine. For each condition, the Ca^2+ levels are shown at baseline, during stimulation and at recovery. […] Individual values are shown with the mean±s.e.m. […] Scale bar, 10 μm. A reduction in caffeine-induced Ca^2+ release indicates a Ca^2+ depleted ER due to persistent RyR2-mediated Ca^2+ leak. Data are derived from biologically independent samples. All statistical tests were two sided.
To determine whether the activation of the adrenergic pathway indeed causes neuronal RyR2-mediated ER Ca^2+ leak, caffeine (10 mM), a well characterized RyR agonist, was used to assess RyR2 function specifically in hippocampal neurons without interference of other cell types such as glial cells or astrocytes.
Target sequence in this assay (E9Q401 whole entry): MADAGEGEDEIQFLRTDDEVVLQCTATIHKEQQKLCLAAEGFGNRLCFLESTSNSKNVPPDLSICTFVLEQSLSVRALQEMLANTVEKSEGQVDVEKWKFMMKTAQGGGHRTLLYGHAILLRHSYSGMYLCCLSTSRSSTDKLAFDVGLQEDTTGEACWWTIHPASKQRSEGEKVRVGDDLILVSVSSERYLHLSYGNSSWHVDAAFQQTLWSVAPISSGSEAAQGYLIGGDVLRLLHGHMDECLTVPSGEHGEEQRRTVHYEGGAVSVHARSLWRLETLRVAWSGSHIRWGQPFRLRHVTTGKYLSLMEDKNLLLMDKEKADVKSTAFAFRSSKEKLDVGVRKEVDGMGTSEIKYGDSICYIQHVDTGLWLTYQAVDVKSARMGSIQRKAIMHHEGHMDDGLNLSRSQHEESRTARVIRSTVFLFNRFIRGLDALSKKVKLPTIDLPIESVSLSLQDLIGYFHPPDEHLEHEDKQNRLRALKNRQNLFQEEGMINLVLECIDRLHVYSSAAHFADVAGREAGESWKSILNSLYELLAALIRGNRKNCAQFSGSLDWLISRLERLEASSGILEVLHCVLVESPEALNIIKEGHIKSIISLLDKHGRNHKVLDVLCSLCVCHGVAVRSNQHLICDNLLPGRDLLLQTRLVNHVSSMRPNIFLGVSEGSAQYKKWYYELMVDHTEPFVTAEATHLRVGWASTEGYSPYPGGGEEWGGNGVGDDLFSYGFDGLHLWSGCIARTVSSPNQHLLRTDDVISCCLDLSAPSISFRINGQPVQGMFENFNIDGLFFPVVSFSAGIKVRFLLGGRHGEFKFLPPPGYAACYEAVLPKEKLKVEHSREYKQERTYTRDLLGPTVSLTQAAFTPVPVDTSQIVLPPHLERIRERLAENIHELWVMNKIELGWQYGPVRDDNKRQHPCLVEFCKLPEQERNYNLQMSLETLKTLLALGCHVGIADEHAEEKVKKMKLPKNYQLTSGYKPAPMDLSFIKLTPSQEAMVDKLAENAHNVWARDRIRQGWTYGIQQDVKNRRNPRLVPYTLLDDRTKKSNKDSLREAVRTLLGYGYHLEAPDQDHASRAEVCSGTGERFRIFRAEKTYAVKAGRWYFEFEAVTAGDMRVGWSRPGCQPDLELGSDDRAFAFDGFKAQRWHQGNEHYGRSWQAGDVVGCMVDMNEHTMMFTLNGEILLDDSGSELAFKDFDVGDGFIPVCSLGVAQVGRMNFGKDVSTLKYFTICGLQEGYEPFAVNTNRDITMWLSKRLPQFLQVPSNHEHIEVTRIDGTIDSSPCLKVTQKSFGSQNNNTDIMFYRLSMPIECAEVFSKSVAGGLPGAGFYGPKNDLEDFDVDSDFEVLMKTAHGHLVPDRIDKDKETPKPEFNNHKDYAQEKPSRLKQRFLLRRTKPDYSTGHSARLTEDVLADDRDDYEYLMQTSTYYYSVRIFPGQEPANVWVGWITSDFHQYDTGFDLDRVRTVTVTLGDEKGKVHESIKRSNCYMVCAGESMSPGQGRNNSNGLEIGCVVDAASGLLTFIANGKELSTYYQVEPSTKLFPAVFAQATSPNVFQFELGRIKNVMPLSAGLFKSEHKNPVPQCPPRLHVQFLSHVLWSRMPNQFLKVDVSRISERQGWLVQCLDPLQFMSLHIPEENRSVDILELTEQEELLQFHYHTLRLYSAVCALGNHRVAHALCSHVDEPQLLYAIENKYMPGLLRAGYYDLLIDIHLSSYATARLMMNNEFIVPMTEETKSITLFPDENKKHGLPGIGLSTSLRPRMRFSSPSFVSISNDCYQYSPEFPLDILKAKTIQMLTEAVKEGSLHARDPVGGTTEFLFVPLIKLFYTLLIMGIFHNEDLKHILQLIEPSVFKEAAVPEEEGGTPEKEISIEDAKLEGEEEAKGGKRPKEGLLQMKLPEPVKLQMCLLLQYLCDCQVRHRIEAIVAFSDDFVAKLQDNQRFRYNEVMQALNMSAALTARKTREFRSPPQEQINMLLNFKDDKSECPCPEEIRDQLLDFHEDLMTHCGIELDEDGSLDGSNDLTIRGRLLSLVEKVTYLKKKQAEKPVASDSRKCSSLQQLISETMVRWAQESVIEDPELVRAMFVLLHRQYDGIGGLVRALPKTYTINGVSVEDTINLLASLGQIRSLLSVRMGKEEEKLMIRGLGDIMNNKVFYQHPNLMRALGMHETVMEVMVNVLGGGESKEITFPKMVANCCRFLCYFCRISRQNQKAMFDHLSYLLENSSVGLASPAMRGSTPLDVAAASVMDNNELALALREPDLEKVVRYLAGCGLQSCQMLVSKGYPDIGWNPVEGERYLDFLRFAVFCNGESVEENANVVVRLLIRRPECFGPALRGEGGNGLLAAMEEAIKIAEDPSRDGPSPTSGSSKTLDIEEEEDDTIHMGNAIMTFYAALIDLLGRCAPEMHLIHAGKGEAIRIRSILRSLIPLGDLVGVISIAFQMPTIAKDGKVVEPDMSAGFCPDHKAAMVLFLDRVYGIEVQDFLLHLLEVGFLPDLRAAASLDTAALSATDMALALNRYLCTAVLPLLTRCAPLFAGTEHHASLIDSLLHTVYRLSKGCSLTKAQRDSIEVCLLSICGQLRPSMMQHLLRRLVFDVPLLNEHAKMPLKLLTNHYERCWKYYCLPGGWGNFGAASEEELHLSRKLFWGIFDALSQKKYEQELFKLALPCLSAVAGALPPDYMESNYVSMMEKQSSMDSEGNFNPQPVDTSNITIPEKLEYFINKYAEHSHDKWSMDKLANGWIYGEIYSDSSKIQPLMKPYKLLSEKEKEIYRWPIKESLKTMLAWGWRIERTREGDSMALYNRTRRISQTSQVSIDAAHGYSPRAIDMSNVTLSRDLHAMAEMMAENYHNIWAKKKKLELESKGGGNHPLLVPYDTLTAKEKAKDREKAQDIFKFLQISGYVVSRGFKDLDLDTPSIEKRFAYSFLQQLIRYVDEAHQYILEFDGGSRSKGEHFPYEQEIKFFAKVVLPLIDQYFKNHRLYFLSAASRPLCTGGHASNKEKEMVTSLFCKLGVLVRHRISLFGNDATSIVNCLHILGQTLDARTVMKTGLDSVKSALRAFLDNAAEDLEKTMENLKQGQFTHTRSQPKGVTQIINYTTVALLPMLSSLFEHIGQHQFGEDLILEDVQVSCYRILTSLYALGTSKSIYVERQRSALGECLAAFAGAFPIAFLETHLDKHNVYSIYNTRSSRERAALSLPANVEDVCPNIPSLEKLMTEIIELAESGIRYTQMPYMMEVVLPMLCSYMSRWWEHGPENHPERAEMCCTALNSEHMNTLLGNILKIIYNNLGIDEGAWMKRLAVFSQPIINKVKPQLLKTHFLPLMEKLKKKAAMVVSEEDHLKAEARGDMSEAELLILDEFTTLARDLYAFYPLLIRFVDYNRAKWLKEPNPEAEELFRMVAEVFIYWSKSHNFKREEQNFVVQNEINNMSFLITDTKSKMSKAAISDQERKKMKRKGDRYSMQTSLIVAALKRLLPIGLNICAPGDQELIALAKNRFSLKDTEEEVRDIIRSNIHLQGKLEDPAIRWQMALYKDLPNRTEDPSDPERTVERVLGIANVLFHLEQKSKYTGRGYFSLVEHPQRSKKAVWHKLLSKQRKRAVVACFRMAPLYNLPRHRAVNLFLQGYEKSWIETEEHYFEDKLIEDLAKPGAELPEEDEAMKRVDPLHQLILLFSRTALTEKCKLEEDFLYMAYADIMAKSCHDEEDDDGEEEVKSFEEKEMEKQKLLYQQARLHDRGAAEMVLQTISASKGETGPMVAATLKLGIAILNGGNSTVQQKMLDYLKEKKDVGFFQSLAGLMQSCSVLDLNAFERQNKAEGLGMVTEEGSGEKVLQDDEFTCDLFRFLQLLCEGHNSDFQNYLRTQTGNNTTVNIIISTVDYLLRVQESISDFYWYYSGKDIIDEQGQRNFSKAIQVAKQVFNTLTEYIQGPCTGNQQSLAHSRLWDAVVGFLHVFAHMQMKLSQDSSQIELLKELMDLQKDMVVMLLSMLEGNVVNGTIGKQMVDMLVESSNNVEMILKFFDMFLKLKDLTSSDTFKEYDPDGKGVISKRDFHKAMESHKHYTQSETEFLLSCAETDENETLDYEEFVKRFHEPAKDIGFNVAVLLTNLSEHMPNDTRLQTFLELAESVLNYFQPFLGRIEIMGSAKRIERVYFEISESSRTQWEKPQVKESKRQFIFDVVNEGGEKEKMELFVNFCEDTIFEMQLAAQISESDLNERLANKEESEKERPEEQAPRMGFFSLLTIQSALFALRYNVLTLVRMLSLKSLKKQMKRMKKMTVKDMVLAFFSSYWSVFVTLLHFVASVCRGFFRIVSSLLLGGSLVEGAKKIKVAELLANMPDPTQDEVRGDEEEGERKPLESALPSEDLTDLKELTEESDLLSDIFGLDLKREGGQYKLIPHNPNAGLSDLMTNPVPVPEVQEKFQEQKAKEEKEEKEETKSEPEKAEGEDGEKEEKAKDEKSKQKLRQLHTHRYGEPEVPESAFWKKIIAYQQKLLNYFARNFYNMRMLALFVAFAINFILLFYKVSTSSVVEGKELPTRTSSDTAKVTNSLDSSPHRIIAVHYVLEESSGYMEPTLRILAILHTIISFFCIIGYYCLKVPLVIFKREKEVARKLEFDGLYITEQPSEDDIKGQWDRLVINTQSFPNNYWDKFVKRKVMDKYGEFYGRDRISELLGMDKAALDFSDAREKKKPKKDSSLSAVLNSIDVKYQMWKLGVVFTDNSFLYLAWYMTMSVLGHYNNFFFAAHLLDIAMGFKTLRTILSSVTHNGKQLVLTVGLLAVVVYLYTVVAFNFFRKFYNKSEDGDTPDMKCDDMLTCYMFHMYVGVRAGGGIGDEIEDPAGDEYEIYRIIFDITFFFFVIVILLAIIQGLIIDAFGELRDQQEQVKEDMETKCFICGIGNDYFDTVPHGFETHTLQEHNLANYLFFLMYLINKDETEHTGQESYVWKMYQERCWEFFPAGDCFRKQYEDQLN

[3] = tested on: mouse model of HF (myocardial infarction, MI); assay: novel object recognition test (hippocampal-dependent short-term memory); assay type: in vivo; details: MI mice, treated; MI 15%±4%, SHAM 48%±5%
Source text: One-way analysis of variance (ANOVA) was used to compare the difference between the six groups in FIGS. 2B, 2C, 2E and 2F. Tukey's test was used for multiple comparisons; two-way ANOVA was used in FIG. 2D. […] All statistical tests were two sided with the data derived from biologically independent samples.
Next, a novel object recognition test was used to evaluate hippocampal-dependent short-term memory. (see Liu, X. et al. Role of leaky neuronal ryanodine receptors in stress-induced cognitive dysfunction. Cell 150, 1055-1067 (2012); and Bevins, R. A. & Besheer, J. Object recognition in rats and mice: a one-trial non-matching-to-sample learning task to study ‘recognition memory’. Nat. Protoc. 1, 1306-1311 (2006)).

[4] = tested on: germinal matrix hemorrhage; details: cited from earlier work
[5] = tested on: HIV-1-associated neurocognitive disorders; details: rat model; cited from earlier work
RyR2 [6] = target: T1, RyR2; assay: ER Ca2+ leak measured in microsomes from mouse hippocampi; assay type: in vivo; design: Hippocampal RyR2 was immunoprecipitated and immunoblotted to detect PTMs; from tissue; host or cells: mouse hippocampus (SHAM / MI mice, treated in vivo); details: hippocampal microsomes from treated MI mice, versus untreated MI
Description: FIG. 3E are graphs of RyR2 Po, To and Tc in the same groups as FIG. 3D. FIG. 3F is a graph of Ca^2+ leak measured in microsomes from mouse hippocampi of the same groups as FIG. 3D. […] Individual values are shown with the mean±s.e.m. […] Data are derived from biologically independent samples. All statistical tests were two sided.
PTMs and functional abnormalities of neuronal RyR2 in HF hippocampal samples from MI mice were then evaluated and compared them to SHAM. Hippocampal RyR2 was immunoprecipitated and immunoblotted to detect PTMs.
Target sequence in this assay (E9Q401 whole entry): as above
Target sequence in this assay (Q9Z2I2 whole entry partner): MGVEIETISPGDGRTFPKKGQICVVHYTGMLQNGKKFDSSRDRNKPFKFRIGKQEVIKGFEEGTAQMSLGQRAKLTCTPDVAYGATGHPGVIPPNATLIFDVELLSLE

| SMILES | NOX2 binding to hippocampal RyR2 (TGF-β pathway) | TGF-β levels (TGF-β pathway) | phosphorylation of SMAD3 (TGF-β pathway) | amyloid and Tau pathology [1] | effects on cognition (healthy individuals) | prevention of the small caffeine-induced Ca2+ release of isoproterenol-treated neurons (RyR2 [2]) | discrimination index [3] | motor and cognitive function ([4]; rat model of germinal matrix hemorrhage) | germinal matrix hemorrhage ([4]; rat model) | spatial learning [5] | ER Ca2+ leak (RyR2 [6]) |
| --- | --- | --- | --- | --- | --- | --- | --- | --- | --- | --- | --- |
| CC(C)NCC(O)COc1cccc2ccccc12 (centres unmarked) [propranolol] | significantly reduced | significantly reduced | significantly reduced | reduced | beneficial effects | prevented |  |  |  |  |  |
| Fc1ccc(Cl)cc1-c1nc(Nc2ccncc2)c2nccnc2n1 [SD-208] | significantly reduced | significantly reduced | significantly reduced |  |  |  | 35%±6% | partial recovery | inhibit germinal matrix hemorrhage | improved | reduced |
